Legend:
Format in all cases: in vivo
[1] = test system: ts1 mutant (ts1-ref/ts1-ref) plants; test: Jasmonic acid treatment of ts1 mutant maize tassels
Description: (§1) Maize plants were grown under greenhouse conditions. Two seeds were planted in 2-gallon reusable pots containing Super-Fine Germinating Mix (Fafard, Agawam, Mass., USA) or Redi-earth Professional Growing Mix (Sun Gro, Bellevue, Wash., USA). Fertilization was performed with controlled release Osmocote Plus 15-9-12 (Scotts, Marysville, Ohio, USA) following the manufacturer recommendations. Additional watering was performed with 4% ammonium iron citrate (Sigma-Aldrich) every 2 weeks to prevent chlorosis. Greenhouse average temperatures were 28° C. (day) and 21° C. (night). Supplemental lightning was provided to achieve a 16:8 hour photoperiod yearlong.
(§2) Tassels of about 1 cm were considered to be at an ideal stage to initiate chemical treatments. Since a thick leaf whorl covers the maize tassel at this time of development, only a destructive dissection of the plant permits to assess with certainty the stage of tassel development (Bonnet, 1940, J. Agricult. Res. 60:25; Bonnet, 1948, Ann. Mo. Bot. Gard. 35:269). Additionally, the sex determination phase was reached within a wide time window, between 28 and 46 days post-planting, depending on the growing conditions. Leaf number, node number or internode distance were not always reliable criteria to predict the tassel developmental stage.
Seedlings from a family segregating 1:1 for wild-type (ts1-ref/Ts1) and ts1 mutant (ts1-ref/ts1-ref) plants were genotyped for the Ts1 and ts1-ref alleles with a PCR-based assay. […] Jasmonic acid (JA, Sigma-Aldrich) was dissolved at a concentration of 200 mM in absolute ethanol and stored at −20° C. Prior to plant treatment, the JA stock solution was diluted to a concentration of 1 mM in deionized water. Control plants were treated with a 0.005% ethanol solution (“blank” treatment or negative control). One ml of the corresponding solution was applied into the apical leaf cavity of each plant. Treatments were performed three times at 48-hour intervals.
The developmental timing of the pistil abortion process occurs in tassel inflorescences when they are 1.0 to 3.0 cm in length (Irish & Nelson, 1993, Am. J. Bot. 80:292), which was also the stage at which ts1 expression occurred in the subtending glumes (FIGS. 6B to 6D). A 0.005% ethanol solution, with or without 1 mM JA, was applied to tassels of ˜1 cm in wildtype (ts1-ref/+) or ts1 mutant (ts1-ref/ts1-ref) sibling plants.

[2] = test system: wildtype (ts1-ref/+) sibling plants; test: Jasmonic acid treatment of heterozygous wild-type sibling maize plants; settings: 1 mM JA, three times at 48-hour intervals
Description: as §1
as §2, with “stage. […]” for “stage.”

[3] = test system: mutant ts2-ref/ts2-ref and ts2-ref/+ plants; test: Jasmonic acid treatment of ts2 maize plants; settings: JA applied as for ts1 plants
Description: as §1
as §2, with “stage. […]” for “stage.”

[4] = 1 mM JA, three times at 48-hour intervals

CC/C=C\C[C@H]1C(=O)CC[C@@H]1CC(=O)O [JA, (1R,2R)-3-oxo-2-(2Z)-2-pentenylcyclopentaneacetic acid]
sexual phenotype of tassel (feminization; staminate spikelets) ([1]; 1 mM JA in 0.005% ethanol, 1 ml into apical leaf cavity, three times at 48-hour intervals, tassels of ~1 cm): reversed feminization | glume morphology of treated ts1 mutants [1, 4]: elongated, were covered with numerous trichomes, and had a ring of anthocyanin deposited at the base | time to appearance of wildtype rescue in glumes after treatment [1, 4]: 3 to 4 weeks | stamen emergence from treated ts1 mutant spikelets ([1]; later in floral development): stamens emerged | pollen viability of staminate florets from rescued ts1/ts1 plants ([1]; pollen used for self-pollination and test crosses): produced viable pollen | completeness of rescued tassel inflorescence phenotype ([1]; some spikelets bisexual, others at base pistillate): incomplete | effect of treatment on heterozygous ts1-ref/+ sibs [2]: nor did JA treatment affect heterozygous ts1-ref/+ sibs | response of ts2 plants to treatment [3]: responded in the same manner as the JA-treated ts1 mutants

From patent US9258998B2, “Methods for controlling flower development in plants” (Yale University, priority 2009, dated 2016)
